Patent US12622916B2, “Use of H3K9me3 modulation for enhancing cognitive function” (THE REGENTS OF THE UNIVERSITY OF CALIFORNIA, priority 2015, dated 2026)
Entries after “also recorded” stand apart in the source; their conditions may differ.

Experiments:
aged mice = assay: Contextual fear conditioning in aged mice; type: in vivo; conditions: 10 mg/kg i.p., versus aged controls
Experimental: Fear conditioning: 14 aged (18-20 months) male mice were placed in the fear-conditioning chamber were allowed to explore for 2 minutes before receiving one electric foot shocks (2 seconds, 0.2 mA). Animals were returned to the home cage 2 minutes after the foot shock.

bdnf promoters = assay: ChIP for H3K9me3 at BDNF promoter regions in hippocampus; type: in vivo; conditions: aged mice, ETP69 versus controls
Experimental: ChIP for BDNF promoter regions: After cross-linking with 1% formaldehyde, chromatin was sheared to fragments of 200-500 bp. Immunoprecipitation was realized overnight at 4° C. with an antibody directed against histone H3K9me3 (H3K9me3; Millipore). After washes, elution from beads, and reversal of the cross-link, immunoprecipitated DNA was purified and analyzed in triplicate by qRT-PCR with an internal standard curve prepared from pooled input samples. Each sample was normalized with the respective input value. Primers for bdnf promoters for exon I, IV, and VI correspond to each unique exon sequence. RT-qPCR primer sets were designed using the Roche Universal Probe Library Assay Design Center and obtained from Integrated DNA Technologies (Coralville, IA). RT-qPCR reactions were run in a Stratagene MX3005P thermocycler at 95° C. for 3 min, followed by 45 cycles of 95° C. for 10 s, and 58° C. for 15 s. Each RT-qPCR run included all samples run in triplicate and a standard curve. Data were analyzed by the 2^−ΔΔct method and expressed as fold change over control after normalizing with input samples, as described previously.

[1] = tested on: 14 DIV hippocampal neurons; assay: PSD-95 immunoreactivity and dendritic F-actin staining in hippocampal neurons; type: cell-based; conditions: 20 nM, 24 hours
From the text: Neurons were stained with antibodies against PSD-95 (red) and MAP2 (green). Scale bars: 10 μm, top panel; 2 μm, bottom panel.
Note presence of numerous puncta marking presence of many spines. Top panel: Control, bottom panel: ETP treated neurons. Scale bar: 2 μm.

## CN1C(=O)[C@@]23C[C@](C)(C#N)[C@H](c4ccc5c(c4)OCO5)N2C(=O)[C@]1(C)SS3 (racemic) [ETP69, Rac-(3S,6S,7S,8aS)-6-(benzo[d][1,3]dioxol-5-yl)-2,3,7-trimethyl-1,4-dioxohexahydro-6H-3,8a-epidithiopyrrolo[1,2-a]pyrazine-7-carbonitrile]
Aged mice
  contextual fear conditioning performance (freezing): improved performance
Bdnf promoters
  H3K9me3 at bdnf promoter I (Exon 1): significant effect of treatment; also recorded: significantly lower
[1]
  PSD-95 immunoreactivity: increased PSD-95 immunoreactivity
  dendritic F-actin staining: increased dendritic F-actin staining
